Measurements from article PMC8523698, “Preclinical characterization of an intravenous coronavirus 3CL protease inhibitor for the potential treatment of COVID19” (Nature Communications, 2021).
Values after ≈ are worked out from the molar mass of the structure shown. Values joined by “and” are separate entries in the source; they are usually repeats but may differ in a detail not shown here. Equal entries are not always repeated.

Tests used:
CYP2C9 = CYP2C9 (Homo sapiens, UniProt P11712); experiment: Reversible CYP inhibition in human liver microsomes; details: human, microsomes, pH 7.4, Percent of Control Activity; for activity at 43.8 µM: CYP 2C9, 43.8 µM; for activity at 93.5 µM: CYP 2C9, 93.5 µM; for activity at 200 µM: CYP 2C9, 200 µM
CYP2C8 = target: T1, CYP2C8 (Homo sapiens, UniProt P10632); experiment: as above; details: for activity at 0.1 µM / activity at 0.214 µM / activity at 0.979 µM / activity at 2.09 µM / activity at 4.48 µM / activity at 20.5 µM / activity at 43.8 µM / activity at 93.5 µM / activity at 200 µM: pH 7.4, Percent of Control Activity
T1 sequence (P10632 1-490): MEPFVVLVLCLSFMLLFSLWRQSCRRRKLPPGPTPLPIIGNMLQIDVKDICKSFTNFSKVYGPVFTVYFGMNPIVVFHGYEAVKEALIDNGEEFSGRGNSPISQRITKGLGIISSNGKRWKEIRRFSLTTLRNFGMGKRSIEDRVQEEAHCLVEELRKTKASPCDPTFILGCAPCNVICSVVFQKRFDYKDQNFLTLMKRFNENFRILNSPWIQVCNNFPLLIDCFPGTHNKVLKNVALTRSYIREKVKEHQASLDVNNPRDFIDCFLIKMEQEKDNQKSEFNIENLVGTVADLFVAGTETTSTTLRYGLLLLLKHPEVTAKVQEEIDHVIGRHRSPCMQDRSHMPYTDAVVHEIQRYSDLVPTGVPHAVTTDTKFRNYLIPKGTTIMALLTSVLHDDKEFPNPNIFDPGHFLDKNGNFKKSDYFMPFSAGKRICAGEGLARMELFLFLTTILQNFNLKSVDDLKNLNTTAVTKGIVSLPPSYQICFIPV

MDR1/P-gp = MDR1/P-gp (Homo sapiens, UniProt P08183); experiment: Transporter inhibition using membrane vesicles; details: for % PGP Uptake Activity: uptake of N-methyl quinidine by MDR1, single replicates
hERG channel = hERG channel (Homo sapiens, UniProt Q12809); experiment: hERG potassium channel current assay; details: 300 µM vs projected Cmax at projected human efficacious dose
hERG channel, sequence (Q12809 whole entry): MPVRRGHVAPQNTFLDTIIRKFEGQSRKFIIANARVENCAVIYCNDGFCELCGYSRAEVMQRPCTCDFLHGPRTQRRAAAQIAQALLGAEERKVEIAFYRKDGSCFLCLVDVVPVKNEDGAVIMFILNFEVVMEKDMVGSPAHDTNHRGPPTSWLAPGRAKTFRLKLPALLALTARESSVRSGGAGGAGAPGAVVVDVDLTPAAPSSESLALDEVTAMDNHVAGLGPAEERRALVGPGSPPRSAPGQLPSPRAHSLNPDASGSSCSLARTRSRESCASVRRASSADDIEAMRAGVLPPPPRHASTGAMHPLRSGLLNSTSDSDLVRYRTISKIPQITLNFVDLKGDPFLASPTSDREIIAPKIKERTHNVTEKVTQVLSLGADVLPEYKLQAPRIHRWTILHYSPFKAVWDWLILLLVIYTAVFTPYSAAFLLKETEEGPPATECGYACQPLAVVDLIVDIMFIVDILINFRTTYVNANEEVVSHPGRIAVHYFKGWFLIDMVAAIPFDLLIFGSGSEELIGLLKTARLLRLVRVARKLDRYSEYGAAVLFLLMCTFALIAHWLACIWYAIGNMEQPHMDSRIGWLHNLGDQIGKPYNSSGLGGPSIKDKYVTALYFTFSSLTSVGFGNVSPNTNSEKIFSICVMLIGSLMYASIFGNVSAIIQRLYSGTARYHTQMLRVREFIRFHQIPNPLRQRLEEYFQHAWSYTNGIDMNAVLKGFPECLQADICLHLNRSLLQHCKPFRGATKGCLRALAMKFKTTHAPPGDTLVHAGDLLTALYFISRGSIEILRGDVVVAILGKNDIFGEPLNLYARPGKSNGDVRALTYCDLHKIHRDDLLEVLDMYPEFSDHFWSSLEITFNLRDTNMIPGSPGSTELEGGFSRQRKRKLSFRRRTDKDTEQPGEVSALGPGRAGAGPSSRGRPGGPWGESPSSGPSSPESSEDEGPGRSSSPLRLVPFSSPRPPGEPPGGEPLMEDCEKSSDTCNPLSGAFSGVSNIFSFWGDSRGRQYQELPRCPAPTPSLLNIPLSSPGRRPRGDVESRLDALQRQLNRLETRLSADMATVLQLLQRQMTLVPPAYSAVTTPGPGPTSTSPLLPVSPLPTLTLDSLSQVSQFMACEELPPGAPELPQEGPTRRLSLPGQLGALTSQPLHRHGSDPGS

CYP2C9, sequence (P11712 whole entry): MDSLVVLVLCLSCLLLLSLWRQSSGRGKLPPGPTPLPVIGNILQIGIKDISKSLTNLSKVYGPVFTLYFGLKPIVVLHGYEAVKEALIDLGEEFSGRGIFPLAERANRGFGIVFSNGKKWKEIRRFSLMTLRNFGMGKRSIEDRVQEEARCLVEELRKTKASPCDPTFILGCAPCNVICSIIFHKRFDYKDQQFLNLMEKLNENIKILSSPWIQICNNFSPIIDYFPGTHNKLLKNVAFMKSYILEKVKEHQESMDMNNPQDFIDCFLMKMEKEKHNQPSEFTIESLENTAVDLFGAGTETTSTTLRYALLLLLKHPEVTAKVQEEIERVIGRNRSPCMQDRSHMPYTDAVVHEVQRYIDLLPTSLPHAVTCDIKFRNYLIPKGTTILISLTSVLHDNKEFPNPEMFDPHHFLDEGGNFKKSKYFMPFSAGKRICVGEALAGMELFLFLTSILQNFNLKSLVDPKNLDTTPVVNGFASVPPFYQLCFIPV
MDR1/P-gp, sequence (P08183 whole entry): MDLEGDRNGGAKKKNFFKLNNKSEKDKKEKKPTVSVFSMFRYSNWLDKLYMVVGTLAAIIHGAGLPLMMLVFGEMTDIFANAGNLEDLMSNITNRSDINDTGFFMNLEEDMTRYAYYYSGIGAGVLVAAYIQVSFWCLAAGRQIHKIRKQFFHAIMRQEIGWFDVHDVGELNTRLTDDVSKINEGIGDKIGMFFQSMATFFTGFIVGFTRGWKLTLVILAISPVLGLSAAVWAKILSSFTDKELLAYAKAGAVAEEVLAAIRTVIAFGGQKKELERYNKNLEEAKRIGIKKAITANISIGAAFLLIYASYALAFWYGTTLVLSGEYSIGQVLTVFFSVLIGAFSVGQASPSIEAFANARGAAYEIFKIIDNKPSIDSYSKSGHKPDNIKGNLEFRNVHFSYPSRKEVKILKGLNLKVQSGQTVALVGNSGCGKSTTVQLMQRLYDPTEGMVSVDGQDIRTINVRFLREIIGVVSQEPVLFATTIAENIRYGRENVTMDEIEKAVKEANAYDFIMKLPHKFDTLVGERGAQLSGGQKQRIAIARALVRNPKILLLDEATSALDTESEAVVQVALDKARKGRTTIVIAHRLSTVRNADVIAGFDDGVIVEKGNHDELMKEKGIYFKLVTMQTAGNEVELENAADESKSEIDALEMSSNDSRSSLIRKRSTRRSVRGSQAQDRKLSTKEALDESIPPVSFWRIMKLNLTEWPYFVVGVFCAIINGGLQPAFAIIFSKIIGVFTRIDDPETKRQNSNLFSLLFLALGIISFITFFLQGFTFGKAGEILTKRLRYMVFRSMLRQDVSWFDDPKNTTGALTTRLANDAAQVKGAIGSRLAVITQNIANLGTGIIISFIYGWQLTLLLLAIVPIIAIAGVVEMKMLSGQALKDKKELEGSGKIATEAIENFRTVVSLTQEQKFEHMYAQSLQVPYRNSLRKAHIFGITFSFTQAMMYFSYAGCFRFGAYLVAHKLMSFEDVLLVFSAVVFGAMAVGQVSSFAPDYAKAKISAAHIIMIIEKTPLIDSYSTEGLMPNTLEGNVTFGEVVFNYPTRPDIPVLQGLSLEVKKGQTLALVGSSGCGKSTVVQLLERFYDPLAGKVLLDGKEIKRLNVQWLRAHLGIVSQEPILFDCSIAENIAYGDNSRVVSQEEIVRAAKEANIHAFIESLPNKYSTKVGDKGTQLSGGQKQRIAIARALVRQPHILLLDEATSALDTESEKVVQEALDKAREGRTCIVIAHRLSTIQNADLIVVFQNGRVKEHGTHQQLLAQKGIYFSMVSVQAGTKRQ

With COc1cccc2[nH]c(C(=O)N[C@@H](CC(C)C)C(=O)N[C@@H](C[C@@H]3CCNC3=O)C(=O)CO)cc12 [PF-00835231] the activity at 43.8 µM (CYP2C9; 30-Minute Preincubation) was 101%, the activity at 43.8 µM (CYP2C9; Zero-Minute Preincubation) was 85.2% and the activity at 93.5 µM (CYP2C9; 30-Minute Preincubation) was 92%. The activity at 93.5 µM (CYP2C9; Zero-Minute Preincubation) was 92.6%, the activity at 200 µM (CYP2C9; 30-Minute Preincubation) was 77.1% and the activity at 200 µM (CYP2C9; Zero-Minute Preincubation) was 74.3%. The “Percent of Control Activity” value (CYP2C8; CYP 2C8, 0.1 µM, 30-Minute Preincubation, 0.1 µM) was 98.0% and 103.9%, the “Percent of Control Activity” value (CYP2C8; CYP 2C8, 0.1 µM, Zero-Minute Preincubation, 0.1 µM) was 104.8% and 112.8% and the “Percent of Control Activity” value (CYP2C8; CYP 2C8, 0.214 µM, 30-Minute Preincubation, 0.214 µM) was 93.1% and 90.6%. For the same compound, the “Percent of Control Activity” value (CYP2C8; CYP 2C8, 0.214 µM, Zero-Minute Preincubation, 0.214 µM) was 107.5% and 109.2%, the “Percent of Control Activity” value (CYP2C8; CYP 2C8, 0.979 µM, 30-Minute Preincubation, 0.979 µM) was 105.7% and 92.9% and the “Percent of Control Activity” value (CYP2C8; CYP 2C8, 2.09 µM, 30-Minute Preincubation, 2.09 µM) was 93.9% and 94.5%. The “Percent of Control Activity” value (CYP2C8; CYP 2C8, 2.09 µM, Zero-Minute Preincubation, 2.09 µM) was 100.1% and 105.9%, the “Percent of Control Activity” value (CYP2C8; CYP 2C8, 4.48 µM, 30-Minute Preincubation, 4.48 µM) was 91.6% and 90.7% and the “Percent of Control Activity” value (CYP2C8; CYP 2C8, 4.48 µM, Zero-Minute Preincubation, 4.48 µM) was 107.2% and 107.1%. The “Percent of Control Activity” value (CYP2C8; CYP 2C8, 20.5 µM, 30-Minute Preincubation, 20.5 µM) was 94.2% and 94.7%, the “Percent of Control Activity” value (CYP2C8; CYP 2C8, 20.5 µM, Zero-Minute Preincubation, 20.5 µM) was 95.8% and 108.3% and the “Percent of Control Activity” value (CYP2C8; CYP 2C8, 43.8 µM, 30-Minute Preincubation, 43.8 µM) was 90.3%. For the same compound, the “Percent of Control Activity” value (CYP2C8; CYP 2C8, 43.8 µM, Zero-Minute Preincubation, 43.8 µM) was 96.9% and 95.4%, the “Percent of Control Activity” value (CYP2C8; CYP 2C8, 93.5 µM, 30-Minute Preincubation, 93.5 µM) was 68.7% and 77.7% and the “Percent of Control Activity” value (CYP2C8; CYP 2C8, 93.5 µM, Zero-Minute Preincubation, 93.5 µM) was 87.1% and 95.1%. The “Percent of Control Activity” value (CYP2C8; CYP 2C8, 200 µM, 30-Minute Preincubation, 200 µM) was 65.4% and 64.5%, the “Percent of Control Activity” value (CYP2C8; CYP 2C8, 200 µM, Zero-Minute Preincubation, 200 µM) was 78.5% and 82.2% and the IC50 (CYP2C8; human, microsomes, pH 7.4) was > 200 µM. It also gave an activity at 0.1 µM (CYP2C8; human, microsomes, CYP 2C8, 0.1 µM, 30-Minute Preincubation) of 97.4%, an activity at 0.1 µM (CYP2C8; human, microsomes, CYP 2C8, 0.1 µM, Zero-Minute Preincubation) of 99.7% and an activity at 0.214 µM (CYP2C8; human, microsomes, CYP 2C8, 0.214 µM, 30-Minute Preincubation) of 91%. The activity at 0.214 µM (CYP2C8; human, microsomes, CYP 2C8, 0.214 µM, Zero-Minute Preincubation) was 103%, the activity at 0.979 µM (CYP2C8; human, microsomes, CYP 2C8, 0.979 µM, 30-Minute Preincubation) was 98.3% and the activity at 0.979 µM (CYP2C8; human, microsomes, CYP 2C8, 0.979 µM, Zero-Minute Preincubation) was 108%. The activity at 2.09 µM (CYP2C8; human, microsomes, CYP 2C8, 2.09 µM, 30-Minute Preincubation) was 92.8%, the activity at 2.09 µM (CYP2C8; human, microsomes, CYP 2C8, 2.09 µM, Zero-Minute Preincubation) was 110% and the activity at 4.48 µM (CYP2C8; human, microsomes, CYP 2C8, 4.48 µM, 30-Minute Preincubation) was 85.8%. It also gave an activity at 4.48 µM (CYP2C8; human, microsomes, CYP 2C8, 4.48 µM, Zero-Minute Preincubation) of 104%, an activity at 20.5 µM (CYP2C8; human, microsomes, CYP 2C8, 20.5 µM, 30-Minute Preincubation) of 86% and an activity at 20.5 µM (CYP2C8; human, microsomes, CYP 2C8, 20.5 µM, Zero-Minute Preincubation) of 93.6%. The activity at 43.8 µM (CYP2C8; human, microsomes, CYP 2C8, 43.8 µM, 30-Minute Preincubation) was 82.6%, the activity at 43.8 µM (CYP2C8; human, microsomes, CYP 2C8, 43.8 µM, Zero-Minute Preincubation) was 91.9% and the activity at 93.5 µM (CYP2C8; human, microsomes, CYP 2C8, 93.5 µM, 30-Minute Preincubation) was 76.7%. The activity at 93.5 µM (CYP2C8; human, microsomes, CYP 2C8, 93.5 µM, Zero-Minute Preincubation) was 91.2%, the activity at 200 µM (CYP2C8; human, microsomes, CYP 2C8, 200 µM, 30-Minute Preincubation) was 62.8% and the activity at 200 µM (CYP2C8; human, microsomes, CYP 2C8, 200 µM, Zero-Minute Preincubation) was 79.6%. The CC50 (in vitro; African green monkey, CC50) was > 100 µM, the CC50 (in vitro; African green monkey, CC50, n=1) was > 50 µM and the CC50 (in vitro; monkey, CC50) was > 50 µM. The CC50 (in vitro; monkey, CC50, n=1) was > 50 µM, the CC50 (in vitro; monkey, CC50 GeoMean (95% CI)) was > 100 µM and the solubility at 48 h (Solubility measurement; deionized water and pH buffers) was < 100 µg/mL. For the same compound, the solubility (Solubility measurement; standard solubilizing excipients, aqueous with cosolvent or surfactant or cyclodextrin) was 500 µg/mL (≈ 1060 µM), the IC50 (MDR1/P-gp; IC50, N-methyl quinidine (0.2 µM)) was 65.6 µM and the IC50 at […] (MDR1/P-gp; human, human MDR1 (P-gp) membrane vesicles, pH 7.4, probe N-methyl quinidine (0.2 µM), IC50, N-methyl quinidine (0.2 µM)) was > 20 µM. For the same compound, the “% PGP Uptake Activity” value (MDR1/P-gp; inhibitor concentration 0.0732 uM) was 93.3145% and 114.451% and 106.12%, the “% PGP Uptake Activity” value (MDR1/P-gp; inhibitor concentration 0.2930 uM) was 78.5035% and 118.154% and 104.268% and the “% PGP Uptake Activity” value (MDR1/P-gp; inhibitor concentration 1.1719 uM) was 118.617% and 114.451%. For the same compound, the “% PGP Uptake Activity” value (MDR1/P-gp; inhibitor concentration 4.6875 uM) was 113.525% and 107.354% and 108.897%, the “% PGP Uptake Activity” value (MDR1/P-gp; inhibitor concentration 18.7500 uM) was 94.703% and 96.0915% and 89.1489% and the “% PGP Uptake Activity” value (MDR1/P-gp; inhibitor concentration 300.0000 uM) was 17.0995% and 14.0139% and 11.9619%. For the same compound, the “hERG margin in reference to projected unbound human Cmax” value (hERG channel) was 600 fold.
